Measured values taken from US20250195513A1, “DEGRADATION OF IRAK4 BY CONJUGATION OF IRAK4 INHIBITORS WITH E3 LIGASE LIGAND AND METHODS OF USE” (BeiGene, Ltd., priority 2022, published 2025).

Key:
[1] = biological target: T1, IRAK4 (Homo sapiens, UniProt Q9NWZ3); assay: IRAK4 Degradation Assay (Karpas299, HTRF/TR-FRET); type: cell-based; conditions: Karpas-299 cells; for Dmax: maximum percentage of degradation
T1 construct: endogenous in cells; host or cells: Karpas299
T1 sequence (Q9NWZ3 1-460): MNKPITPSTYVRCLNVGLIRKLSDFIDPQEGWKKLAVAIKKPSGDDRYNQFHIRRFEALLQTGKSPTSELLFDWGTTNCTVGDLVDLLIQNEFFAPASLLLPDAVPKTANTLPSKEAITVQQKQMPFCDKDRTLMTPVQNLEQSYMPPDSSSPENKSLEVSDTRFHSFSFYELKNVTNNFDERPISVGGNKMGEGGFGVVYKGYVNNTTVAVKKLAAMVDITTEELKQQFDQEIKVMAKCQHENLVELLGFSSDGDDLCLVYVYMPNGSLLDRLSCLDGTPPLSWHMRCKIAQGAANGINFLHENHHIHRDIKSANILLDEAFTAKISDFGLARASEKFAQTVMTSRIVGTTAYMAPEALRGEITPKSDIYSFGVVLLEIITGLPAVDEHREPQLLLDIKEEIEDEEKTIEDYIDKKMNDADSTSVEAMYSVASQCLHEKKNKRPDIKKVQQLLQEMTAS
Outline: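 Compound potency as DC50 (IC50) came from four-parameter fits of percent IRAK4 degradation. IRAK4 was measured by HTRF (665/620 nm) in lysates of Karpas299 cells seeded at 0.2 million per well. Cells had been treated with compound dilutions for 5 or 24 h.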

[2] = biological target: T1, IRAK4; assay: IRAK4 Degradation Assay with Human Serum (Karpas299, HTRF/TR-FRET); type: cell-based; conditions: Karpas-299 in human serum, 24 hrs treatment; for DC50: read-out: IRAK4 degradtion with human serum assay DC50; for Dmax: read-out: IRAK4 degradtion with human serum assay Dmax (%)
Outline: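 Remaining IRAK4 measured by TR-FRET immunoassay on lysates of Karpas299 cells exposed 24 h to compound dilution series in human serum AB. DC50 derived from a Hill-slope fit of % degradation versus concentration.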

[3] = 24 h treatment, read-out: IRAK4 in Karpas-299 (24 h) Dmax (%)
[4] = 24 h treatment, read-out: IRAK4 in Karpas-299 (24 h) DC50

Row | Dmax [1, 3] | DC50 [1, 4] | DC50 [2] | Dmax [2] | Dmax ([1]; 5 h treatment, read-out: IRAK4 in Karpas-299 (5 h) Dmax (%)) | DC50 ([1]; 5 h treatment, read-out: IRAK4 in Karpas-299 (5 h) DC50) | SMILES
1 | 98% | 0.6 nM | 3.2 nM | 102% | – | – | C[C@@H]1CN([C@H]2CC[C@H](n3cc4cc(NC(=O)c5ccc6cc(C#N)cnn56)c(C(C)(C)O)cc4n3)CC2)CCN1CC1CN(c2cc(F)c([C@H]3CCC(=O)NC3=O)c(F)c2)C1 [Example 310, 3-cyano-N-(2-((1R,4r)-4-((R)-4-((1-(4-((R)-2,6-dioxopiperidin-3-yl)-3,5-difluorophenyl)azetidin-3-yl)methyl)-3-methylpiperazin-1-yl)cyclohexyl)-6-(2-hydroxypropan-2-yl)-2H-indazol-5-yl)pyrrolo[1,2-b]pyridazine-7-carboxamide]
2 | 91% | 1.1 nM | 39 nM | 95% | – | – | COC[C@H]1CN([C@H]2CC[C@H](n3cc4cc(NC(=O)c5ccc6cc(C#N)cnn56)c(C(C)(C)O)cc4n3)CC2)CCN1C1CN(c2cc(F)c([C@H]3CCC(=O)NC3=O)c(F)c2)C1 [Example 318, 3-cyano-N-(2-((1R,4r)-4-((R)-4-(1-(4-((R)-2,6-dioxopiperidin-3-yl)-3,5-difluorophenyl)azetidin-3-yl)-3-(methoxymethyl)piperazin-1-yl)cyclohexyl)-6-(2-hydroxypropan-2-yl)-2H-indazol-5-yl)pyrrolo[1,2-b]pyridazine-7-carboxamide]
3 | 97% | 1.4 nM | 5.5 nM | 99% | 93% | 1.6 nM | CC(C)(O)c1cc2nn(C3CCN(C4CCN(C(=O)C5CN(c6cc(F)c([C@H]7CCC(=O)NC7=O)c(F)c6)C5)CC4)CC3)cc2cc1NC(=O)c1ccc2cc(C#N)cnn12 [Example 346, (R)-3-cyano-N-(2-(1′-(1-(4-(2,6-dioxopiperidin-3-yl)-3,5-difluorophenyl)azetidine-3-carbonyl)-[1,4′-bipiperidin]-4-yl)-6-(2-hydroxypropan-2-yl)-2H-indazol-5-yl)pyrrolo[1,2-b]pyridazine-7-carboxamide]
4 | 95% | 5 nM | 9.3 nM | 98% | – | – | CC(C)(O)c1cc2nn([C@H]3CC[C@H](N4CCN([C@H]5C[C@@H](c6ccc(N[C@H]7CCC(=O)NC7=O)cc6)C5)CC4)CC3)cc2cc1NC(=O)c1ccc2cc(C#N)cnn12 [Example 273, 3-cyano-N-(2-((1R,4r)-4-(4-((1R,3S)-3-(4-(((S)-2,6-dioxopiperidin-3-yl)amino)phenyl)cyclobutyl)piperazin-1-yl)cyclohexyl)-6-(2-hydroxypropan-2-yl)-2H-indazol-5-yl)pyrrolo[12-b]pyridazine-7-carboxamide]
5 | 97% | 2.4 nM | 34 nM | 99% | – | – | C[C@H]1CN([C@H]2CC[C@H](n3cc4cc(NC(=O)c5ccc6cc(C#N)cnn56)c(C(C)(C)O)cc4n3)CC2)CCN1C(=O)C1CN(c2cc(F)c(N3CCC(=O)NC3=O)c(F)c2)C1 [Example 312, 3-cyano-N-(2-((1S,4r)-4-((S)-4-(1-(4-(2,4-dioxotetrahydropyrimidin-1(2H)-yl)-3,5-difluorophenyl)azetidine-3-carbonyl)-3-methylpiperazin-1-yl)cyclohexyl)-6-(2-hydroxypropan-2-yl)-2H-indazol-5-yl)pyrrolo[1,2-b]pyridazine-7-carboxamide]
6 | 98% | 0.8 nM | 34 nM | 95% | – | – | CC(C)(O)c1cc2nn([C@H]3CC[C@H](N4CCN([C@@H]5CCN(c6cc(F)c(C7CCC(=O)NC7=O)c(F)c6)C5)CC4)CC3)cc2cc1NC(=O)c1ccc2cc(C#N)cnn12 (stereo partly drawn) [Example 396, 3-cyano-N-(2-((1R,4r)-4-(4-((3R)-1-(4-(2,6-dioxopiperidin-3-yl)-3,5-difluorophenyl)pyrrolidin-3-yl)piperazin-1-yl)cyclohexyl)-6-(2-hydroxypropan-2-yl)-2H-indazol-5-yl)pyrrolo[1,2-b]pyridazine-7-carboxamide]
7 | 97% | 1.1 nM | 12 nM | 98% | – | – | COC[C@@H]1CN(C[C@@H]2CCN(c3cc(F)c([C@H]4CCC(=O)NC4=O)c(F)c3)C2)CCN1[C@H]1CC[C@H](n2cc3cc(NC(=O)c4ccc5cc(C#N)cnn45)c(C(C)(C)O)cc3n2)CC1 [Example 388, 3-cyano-N-(2-((1S,4r)-4-((S)-4-(((S)-1-(4-((R)-2,6-dioxopiperidin-3-yl)-3,5-difluorophenyl)pyrrolidin-3-yl)methyl)-2-(methoxymethyl)piperazin-1-yl)cyclohexyl)-6-(2-hydroxypropan-2-yl)-2H-indazol-5-yl)pyrrolo[1,2-b]pyridazine-7-carboxamide]
8 | 97% | 2.8 nM | 17 nM | 96% | – | – | Cc1nc(C2CCC(=O)NC2=O)ccc1N1CCC(N2CCN(C[C@H]3CC[C@H](n4cc5cc(NC(=O)c6ccc7cc(C#N)cnn67)c(C(C)(C)O)cc5n4)CC3)CC2)CC1 (stereo partly drawn) [Example 420, 3-cyano-N-(2-((1r,4r)-4-((4-(1-(6-(2,6-dioxopiperidin-3-yl)-2-methylpyridin-3-yl)piperidin-4-yl)piperazin-1-yl)methyl)cyclohexyl)-6-(2-hydroxypropan-2-yl)-2H-indazol-5-yl)pyrrolo[1,2-b]pyridazine-7-carboxamide]
9 | 96% | 0.5 nM | 11 nM | 99% | – | – | CC(C)(O)c1cc2nn([C@H]3CC[C@H](N4CCN(C5CCN(c6cc(F)c([C@H]7CCC(=O)NC7=O)c(F)c6)CC5)C[C@@H]4CO)CC3)cc2cc1NC(=O)c1ccc2cc(C#N)cnn12 [Example 399, 3-cyano-N-(2-((1R,4r)-4-((R)-4-(1-(4-((R)-2,6-dioxopiperidin-3-yl)-3,5-difluorophenyl)piperidin-4-yl)-2-(hydroxymethyl)piperazin-1-yl)cyclohexyl)-6-(2-hydroxypropan-2-yl)-2H-indazol-5-yl)pyrrolo[1,2-b]pyridazine-7-carboxamide]
10 | 98% | 0.6 nM | 19 nM | 94% | – | – | CC(=O)c1cc2nn([C@H]3CC[C@H](N4CCN(C5CN(c6cc(F)c([C@H]7CCC(=O)NC7=O)c(F)c6)C5)CC4)CC3)cc2cc1NC(=O)c1ccc2cc(C#N)cnn12 [Example 425, N-(6-acetyl-2-((1R,4r)-4-(4-(1-(4-((R)-2,6-dioxopiperidin-3-yl)-3,5-difluorophenyl)azetidin-3-yl)piperazin-1-yl)cyclohexyl)-2H-indazol-5-yl)-3-cyanopyrrolo[1,2-b]pyridazine-7-carboxamide]
11 | 94% | 4 nM | 11 nM | 101% | – | – | CC(C)(O)c1cc2nn([C@H]3CC[C@H](N4CCN([C@H]5C[C@@H](c6ccc(N[C@@H]7CCC(=O)NC7=O)cc6)C5)CC4)CC3)cc2cc1NC(=O)c1ccc2cc(C#N)cnn12 [Example 271, 3-cyano-N-(2-((1R,4r)-4-(4-((1S,3S)-3-(4-(((R)-2,6-dioxopiperidin-3-yl)amino)phenyl)cyclobutyl)piperazin-1-yl)cyclohexyl)-6-(2-hydroxypropan-2-yl)-2H-indazol-5-yl)pyrrolo[1,2-b]pyridazine-7-carboxamide]
12 | 100% | 0.5 nM | 3.6 nM | 99% | – | – | C[C@H]1CN(C2CCN(c3cc(F)c([C@H]4CCC(=O)NC4=O)c(F)c3)CC2)CCN1[C@H]1CC[C@H](n2cc3cc(NC(=O)c4ccc5cc(C#N)cnn45)c(C(C)(C)O)cc3n2)CC1 [Example 307, 3-cyano-N-(2-((1S,4r)-4-((S)-4-(1-(4-((R)-2,6-dioxopiperidin-3-yl)-3,5-difluorophenyl)piperidin-4-yl)-2-methylpiperazin-1-yl)cyclohexyl)-6-(2-hydroxypropan-2-yl)-2H-indazol-5-yl)pyrrolo[1,2-b]pyridazine-7-carboxamide]
13 | 96% | 2.1 nM | 10 nM | 89% | – | – | COc1cc2nn([C@H]3CC[C@H](N4CCN(CCc5cc(F)c([C@H]6CCC(=O)NC6=O)c(F)c5)CC4)CC3)cc2cc1NC(=O)c1ccc2cc(C#N)cnn12 [Example 337, 3-cyano-N-(2-((1R,4r)-4-(4-(4-((R)-2,6-dioxopiperidin-3-yl)-3,5-difluorophenethyl)piperazin-1-yl)cyclohexyl)-6-methoxy-2H-indazol-5-yl)pyrrolo[1,2-b]pyridazine-7-carboxamide]
